Source: patent publication US6809092B2, “Benezene-fused heteroring derivatives and pharmaceutical agents comprising the same as active ingredient” (Ono Pharmaceutical Co., Ltd., priority 2000, dated 2004)

Experiments:
Format in all cases: biochemical
[1] = target: T1, cathepsin K (Homo sapiens, UniProt P43235); test: Measurement of cathepsin K inhibitory activity; conditions: Dixon plot, pH 5.5, 37° C.
T1 sequence (P43235 115-329): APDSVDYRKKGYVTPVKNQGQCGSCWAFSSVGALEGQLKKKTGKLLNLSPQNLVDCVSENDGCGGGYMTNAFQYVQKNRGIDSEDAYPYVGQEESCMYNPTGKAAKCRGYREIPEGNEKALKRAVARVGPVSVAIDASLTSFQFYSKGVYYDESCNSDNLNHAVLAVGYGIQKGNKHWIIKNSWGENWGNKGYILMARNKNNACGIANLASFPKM
Experimental: (i) Measurement of Cathepsin K Inhibitory Activity
65 μL of Cathepsin K enzyme reaction buffer (50 mmol/L of 2-(N-morpholino)ethanesulfonate, 2 mmol/L of ethylenediamine tetraacetate (EDTA) and 4 mmol/L of dithiothreitol (DTT) were mixed to adjust to pH 5.5), 5 μL of cysteine protease inhibitor solution of several concentrations, 20 μL of synthesized substrate (t-butyloxycarbonyl-L-alanyl-glycyl-L-prolyl-L-arginine-4-methyl-chromanyl-7-amide) solution of several concentrations and 10 μL of cathepsin K enzyme solution were mixed and the increase of fluorescence intensity when reacted at 37° C. was measured (λ ex (excitation wavelength)=355 nm, λ em (fluorescence wavelength)=460 nm). As to the substrate and the compound of the present invention, enzyme reactions were carried out in combination of several appropriate concentrations and Dixon plotting was prepared, to define the absolute value of X-coordinate of the intersection point of the graph as Ki value.

[2] = target: cathepsin B (Homo sapiens, UniProt P07858); test: Measurement of cathepsin B inhibitory activity
Experimental: (ii) Measurement of Cathepsin B Inhibitory Activity
10 μL of Synthesized substrate (carbobenzoxy-L-arginyl-L-arginine-4-methyl-chromanyl-7-amide or carbobenzoxy-L-phenylalanyl-L-arginine-4-methyl-chromanyl-7-amide) solution of several concentrations, 10 μL of cysteine protease inhibitor solution of several concentrations, 70 μL of cathepsin B enzyme reaction buffer (mixture of 400 mmol/L in acetic acid, 4 mmol/L EDTA, 8 mmol/L DDT to adjust to pH 5.5) and 10 μL of cathepsin B enzyme solution were mixed and the increase of fluorescence intensity was measured (λ ex (excitation wavelength)=355 nm, μ em (fluorescence wavelength)=460 nm) when reacted at 37° C.
For example, the inhibitory activity of the compound of example 10 was 95% at 1 μM.

[3] = target: cathepsin S (Homo sapiens, UniProt P25774); test: Measurement of cathepsin S inhibitory activity
Chain of cathepsin S (P25774 115-331, species assumed): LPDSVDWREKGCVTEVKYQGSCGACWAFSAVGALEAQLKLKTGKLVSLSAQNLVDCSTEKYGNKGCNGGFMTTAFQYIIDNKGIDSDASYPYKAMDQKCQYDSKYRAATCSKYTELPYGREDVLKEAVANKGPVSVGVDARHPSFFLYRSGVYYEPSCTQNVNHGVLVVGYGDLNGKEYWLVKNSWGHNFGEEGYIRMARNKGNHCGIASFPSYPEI
Experimental: (iii) Measurement of Cathepsin S Inhibitory Activity
10 μL of synthesized substrate (carbobenzoxy-L-leucyl-L-leucyl-L-arguinine-4-methyl-chromanyl-7-amide) solution and 5 μL of cysteine protease inhibitor solution of several concentrations, 75 μL of cathepsin S enzyme reaction buffer (100 mmol/L of sodium phosphate, 2 mmol/L of EDTA, 2 mmol/L of DTT were mixed to adjust to pH 6.5) and 10 μL of cathepsin S enzyme solution were mixed and the increase of fluorescence intensity was measured (λ ex(excitation wavelength)=355 nm, λ em (fluorescence wavelength)=460 nm) when reacted at 37° C.
It was confirmed that the compound of the present invention of formula (I) has an inhibitory effect more than 50% at 10 μM. For example, the inhibitory activity of the compound of example 18 was 98% at 1 μM.

[4] = target: cathepsin L (Homo sapiens, UniProt P07711); test: Measurement of cathepsin L inhibitory activity
Chain of cathepsin L (P07711 114-333, species assumed): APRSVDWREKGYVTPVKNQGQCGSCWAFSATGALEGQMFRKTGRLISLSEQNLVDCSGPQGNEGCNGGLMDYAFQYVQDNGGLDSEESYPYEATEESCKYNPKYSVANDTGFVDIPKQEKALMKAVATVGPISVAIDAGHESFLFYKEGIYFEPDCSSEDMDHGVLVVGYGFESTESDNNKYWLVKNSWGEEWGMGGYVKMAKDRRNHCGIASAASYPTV
Experimental: (iv) Measurement of Cathepsin L Inhibitory Activity
5 μL of Synthesized substrate (carbobenzoxy-L-phenylalanyl-L-arguine-4-methyl-chromanyl-7-amide or L-prolyl-L-phenylalanyl-L-arguinine-4-methyl-chromanyl-7-amide) solution and 5 μL of cysteine protease inhibitor solution of several concentrations, 80 μL of cathepsin L enzyme reaction buffer (400 mmol/L acetic acid, 4 mmol/L EDTA, 8 mmol/L DTT were mixed to adjust to pH 5.5) and 10 μL of cathepsin L enzyme solution were mixed and the increase of fluorescence intensity was measured (λ ex (excitation wavelength)=355 nm, λ em (fluorescence wavelength)=460 nm) when reacted at 37° C.
For example, the inhibitory activity of the compound of example 22(4) was 97% at 1 μM.

Ki [1] [nM] | Structure (SMILES) | also measured
81 | CC(C)C[C@H](NC(=O)[C@H](CC(C)C)NC(=O)OCc1ccccc1)C(=O)CN1CCSc2ccccc2C1 [example 31, (2S)-N-[(3S)-5-methyl-2-oxo-1-(2,3,4,5-tetrahydro-1,4-benzothiazepin-4-yl)-3-hexyl]-2-benzyloxycarbonylamino-4-methylpentanamide] | 
100 | CC(C)C[C@H](NC(=O)[C@H](CC(C)C)NC(=O)OCc1ccccc1)C(=O)CN1CCCc2ccccc2C1 [3(14), (2S)-N-[(3S)-5-methyl-2-oxo-1-(1,3,4,5-tetrahydro-2H-2-benzazepin-2-yl)-3-hexyl]-4-methyl-2-benzyloxycarbonylamino pentanamide] | 
170 | CC(C)C[C@H](NC(=O)[C@@H]1CCCC[C@@H]1NC(=O)c1ccccc1)C(=O)CN1CCCc2ccccc2C1 [example 3] | 
 | CC(C)C[C@H](NC(=O)[C@@H]1CCCC[C@@H]1NC(=O)c1ccccc1)C(=O)CN1CCCCc2ccccc21 [example 10] | inhibition at 1 µM [2]: 95%
 | CC(C)CC(NC(=O)[C@H](CC(C)C)NC(=O)OCc1ccccc1)C(=O)CN1CCCc2cc(O)ccc2C1 (stereo partly drawn) [example 18] | inhibition at 1 µM [3]: 98%
 | CC(C)C[C@H](NC(=O)[C@H](CC(C)C)NC(=O)OCc1ccccc1)C(=O)CN1CCN(C(C)C)c2ccccc2C1 [example 22(4), (2S)-N-[(3S)-5-methyl-1-(1-isopropyl-2,3,4,5-tetrahydro-1H-1,4-benzodiazepin-4-yl)-2-oxo-3-hexyl]-2-benzyloxycarbonyl amino-4-methylpentanamide] | inhibition at 1 µM [4]: 97%
